The source of these data is US8530648B2, “Diaza-spiro[5.5]undecanes” (Novartis AG, priority 2009, dated 2013).

What is called Kd is the concentration at which binding is half-saturated. What is called Ki is the equilibrium dissociation constant of an inhibitor or competing ligand from its target. By inhibition is commonly meant the share of the control response that was lost under treatment.

The target in test [1] is T1, hOx2R (Homo sapiens (Human), UniProt O43614). As to the kind of experiment: Radioligand binding assay, [125I]orexin A, hOx2R. The settings on record: radioligand [125I]orexin A, competition. The protocol: (§1) For crude cell membrane preparations, cells (CHO, Chinese hamster ovary or HEK, human embryonic kidney) expressing human orexin 1 or human orexin 2 receptors, were washed with HEPES (10 mM, pH 7.5), scraped off the culture plates with the same buffer, and centrifuged at 4° C. for 5 min at 2500×g. The cell pellet was either stored at −80° C. or used directly. Before the experiments, cell membranes were re-suspended in binding assay buffer (10 mM HEPES, 0.5% (w/v) bovine serum albumin, pH 7.5) by homogenisation with a Polytron homogeniser at 50 Hz for 20 s. Cell membranes were also used as made available by commercial providers.
(§2) In initial saturation experiments (to calculate Bmax), cell homogenates (150 μl) were incubated with 25-300 pM of the radioligand ([^125I]orexin A, 50 μl), 8 concentrations in triplicates in the presence or absence Orexin A (1 μM, 50 μl) to define non specific binding. Bound radioactivity was measured, and data were analysed with the program XLFIT or Graphpad Prism. Protein concentration was determined according to the Bradford/BioRad Protein Assay Kit.
(§3) In competition experiments, cell homogenates (150 μl) were incubated in assay buffer (10 mM HEPES, pH 7.5, 0.5% (w/v) bovine serum albumin, 5 mM MgCl2, 1 mM CaCl2, and tween 0.05%) for 1 h at room temperature with about 100 pM of the radioligand ([^125I]orexin A, 2100 Ci/mmole, 50 μl), and with various concentrations of compounds of the invention (50 μl) in triplicates; non-specific binding was determined in the presence of Orexin A (1 μM). Reactions were terminated by vacuum filtration, 3 washes of ice cold wash buffer (Tris-HCl pH 7.4/10 mM, with NaCl 154 mM).

Test [2] concerns the target T1, hOx2R. As to the kind of experiment: Calcium accumulation in cells (FLIPR), hOx2R. It counts as cell-based. The following applies: inhibition of orexin A induced calcium accumulation, Cheng and Prusoff correction. The method, boiled down:
(§4)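 Cells expressing human orexin 1 or 2 receptor, serum-deprived overnight, loaded with Fluo-4-AM (2 μM) plus 0.1 mM probenecid, pH 7.4 HEPES buffer with 1% BSA.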

Test [3] has as its target T2, hOx1R (Homo sapiens (Human), UniProt O43613). As to the kind of experiment: Radioligand binding assay, [125I]orexin A, hOx1R. The following applies: radioligand [125I]orexin A, competition. The protocol: as §1, §2, §3
The target of test [4] is T2, hOx1R. As to the kind of experiment: Calcium accumulation in cells (FLIPR), hOx1R. It counts as cell-based. The following applies: for Ki: inhibition of orexin A induced calcium accumulation, Cheng and Prusoff correction. In outline:
as §4

Test [5] has as its target T2, hOx1R. As to the kind of experiment: Radioligand binding assay, [3H]-SB649868, hOx1R. The settings on record: radioligand [3H]-SB649868, competition. Here is the method:
as §1
(§5) Bound radioactivity was measured, and data were analysed with the program XLFIT or Graphpad Prism. Protein concentration was determined according to the Bradford/BioRad Protein Assay Kit.
(§6) In competition experiments, cell homogenates (150 μl) were incubated in assay buffer (10 mM HEPES, pH 7.5, 0.5% (w/v) bovine serum albumin, 5 mM MgCl2, 1 mM CaCl2, and tween 0.05%) for 1 h at room temperature with about 1 nM of the radioligand [^3H]-SB649868, 66 Ci/mmole, 50 μl), and with various concentrations of compounds of the invention (50 μl) in triplicates; non-specific binding was determined in the presence of almorexant (10 μM).

Test [6] addresses T1, hOx2R. As to the kind of experiment: Radioligand binding assay, [3H]-SB649868, hOx2R. The following applies: radioligand [3H]-SB649868, competition. Here is the method:
as §1, §5, §6

T2 sequence (O43613 whole entry): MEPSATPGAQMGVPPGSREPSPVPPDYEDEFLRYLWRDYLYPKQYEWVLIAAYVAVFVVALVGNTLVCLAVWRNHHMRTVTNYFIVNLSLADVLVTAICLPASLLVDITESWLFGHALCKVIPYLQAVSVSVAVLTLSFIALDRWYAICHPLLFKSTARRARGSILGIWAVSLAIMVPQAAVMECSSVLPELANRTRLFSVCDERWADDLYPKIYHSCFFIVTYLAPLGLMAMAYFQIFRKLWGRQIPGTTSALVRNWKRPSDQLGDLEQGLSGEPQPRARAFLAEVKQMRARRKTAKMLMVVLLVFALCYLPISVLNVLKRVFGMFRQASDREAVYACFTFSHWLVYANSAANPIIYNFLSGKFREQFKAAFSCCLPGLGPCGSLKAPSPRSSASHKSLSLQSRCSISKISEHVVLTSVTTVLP
T1 sequence (O43614 whole entry): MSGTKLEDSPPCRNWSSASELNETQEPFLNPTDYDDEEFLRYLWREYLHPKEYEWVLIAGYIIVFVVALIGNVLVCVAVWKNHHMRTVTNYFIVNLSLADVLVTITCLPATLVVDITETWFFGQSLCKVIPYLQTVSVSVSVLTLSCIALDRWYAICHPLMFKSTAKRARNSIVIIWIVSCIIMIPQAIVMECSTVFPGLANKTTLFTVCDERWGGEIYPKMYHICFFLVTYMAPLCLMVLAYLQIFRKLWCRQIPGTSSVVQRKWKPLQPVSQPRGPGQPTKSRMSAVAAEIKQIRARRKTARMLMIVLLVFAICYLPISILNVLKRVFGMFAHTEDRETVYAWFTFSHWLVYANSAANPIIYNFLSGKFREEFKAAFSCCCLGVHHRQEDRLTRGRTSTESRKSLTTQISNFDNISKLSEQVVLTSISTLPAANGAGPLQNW

Take `Cc1ccc(C)c(CN2C(=O)CCCC23CCN(c2cnc4ccccc4n2)CC3)c1` [Example 41, 1-(2,5-dimethylbenzyl)-9-(quinoxalin-2-yl)-1,9-diazaspiro[5.5]undecan-2-one]: the Kd in test [1] was determined as 36 nM; in test [3], 100 nM. For the same molecule, the inhibitory constant (Ki) was 16 nM in test [2] and 77 nM in test [4].
The like results for `O=C1N(Cc2cccc(-c3cccnc3)c2)CCCC12CCN(c1cnc3ccccc3n1)CC2` [Example 5, 2-(3-(pyridin-3-yl)benzyl)-9-(quinoxalin-2-yl)-2,9-diazaspiro[5.5]undecan-1-one] were, in that order, 98 nM, 426 nM, 22 nM and 83 nM.
`O=C1N(Cc2cccc3[nH]ccc23)CCCC12CCN(c1cnc3ccccc3n1)CC2` [Example 3, 2-((1H-indol-4-yl)methyl)-9-(quinoxalin-2-yl)-2,9-diazaspiro[5.5]undecan-1-one]: the Kd in test [1] stood at 130 nM; in test [3], 630 nM. For the same molecule, the inhibition constant Ki was 63 nM in test [2] and 474 nM in test [4].
Regarding `O=C1N(Cc2ccc3c(c2)OCCO3)CCCC12CCN(c1cnc3ccccc3n1)CC2` [Example 25, 2-((2,3-dihydrobenzo[b][1,4]dioxin-6-yl)methyl)-9-(quinoxalin-2-yl)-2,9-diazaspiro[5.5]undecan-1-one], the figures for the Kd in test [1] and in test [3] were 3210 nM and 5250 nM, respectively.
With `O=C1N(Cc2ccccc2)CCCC12CCN(c1cnc3ccccc3n1)CC2` [Example 6, 2-benzyl-9-(quinoxalin-2-yl)-2,9-diazaspiro[5.5]undecan-1-one], the Kd in test [1] came out at 300 nM; in test [3] it was 1310 nM. Also, the Ki is 371 nM in test [2] and 1480 nM in test [4].
`O=C1N(Cc2cccc3c2OCCO3)CCCC12CCN(c1cnc3ccccc3n1)CC2` [Example 4, 2-((2,3-dihydrobenzo[b][1,4]dioxin-5-yl)methyl)-9-(quinoxalin-2-yl)-2,9-diazaspiro[5.5]undecan-1-one]: the figures for the dissociation constant (Kd) in test [1] and in test [3] were 121 nM and 2060 nM, respectively. Further, the inhibition constant Ki in test [2] came out at 46 nM; in test [4] it was 1360 nM.
Regarding `O=C1CCCC2(CCN(c3nc4ccccc4o3)CC2)N1Cc1cccc2[nH]ccc12` [Example 42, 1-((1H-indol-4-yl)methyl)-9-(benzo[d]oxazol-2-yl)-1,9-diazaspiro[5.5]undecan-2-one], the Kd in test [1] came out at 12 nM; in test [3], 36 nM. Besides, the values for the Ki in test [2] and in test [4] were 3 nM and 20 nM, respectively.
In the case of `O=C1N(Cc2cccc(C(F)(F)F)c2)CCCC12CCN(c1cnc3ccccc3n1)CC2` [Example 14, 9-(quinoxalin-2-yl)-2-(3-(trifluoromethyl)benzyl)-2,9-diazaspiro[5.5]undecan-1-one], the Kd is 211 nM in test [1] and 1380 nM in test [3]. In addition, the inhibition constant Ki in test [2] is 112 nM; in test [4] it was 948 nM.
On the same counts, the results for `O=C1N(Cc2cccc(-c3ccccn3)c2)CCCC12CCN(c1cnc3ccccc3n1)CC2` [Example 54, 2-(3-(pyridin-2-yl)benzyl)-9-(quinoxalin-2-yl)-2,9-diazaspiro[5.5]undecan-1-one] are 175 nM, 634 nM, 47 nM and 420 nM.
For the molecule `O=C1N(Cc2ccc3ccccc3c2)CCCC12CCN(c1cnc3ccccc3n1)CC2` [Example 7, 2-(naphthalen-2-ylmethyl)-9-(quinoxalin-2-yl)-2,9-diazaspiro[5.5]undecan-1-one], the Kd was 9870 nM in test [1] and over 10000 nM in test [3].
On the same counts, the results for `Cn1c(N2CCC3(CCCN(Cc4cccc5ccccc45)C3=O)CC2)nc2ccccc21` [Example 12, 9-(1-methyl-1H-benzo[d]imidazol-2-yl)-2-(naphthalen-1-ylmethyl)-2,9-diazaspiro[5.5]undecan-1-one] are 6100 nM and over 10000 nM.
The like results for `O=C1N(Cc2ccc(C(F)(F)F)cc2)CCCC12CCN(c1cnc3ccccc3n1)CC2` [Example 24, 9-(quinoxalin-2-yl)-2-(4-(trifluoromethyl)benzyl)-2,9-diazaspiro[5.5]undecan-1-one] were, in that order, 5240 nM and over 10000 nM.
As to `Cn1cc(CN2C(=O)CCCC23CCN(c2cnc4ccccc4n2)CC3)c2cccnc21` [Example 143, 1-((1-methyl-1H-pyrrolo[2,3-b]pyridin-3-yl)methyl)-9-(quinoxalin-2-yl)-1,9-diazaspiro[5.5]undecan-2-one], the results for the Kd in test [5] and in test [6] were 307 nM and 50 nM, respectively. The results for the Ki in test [2] and in test [4] were 39 nM and 747 nM, respectively.
Take `Cn1ccc2c(CN3C(=O)CCCC34CCN(c3cnc5ccccc5n3)CC4)cccc21` [Example 44, 1-((1-methyl-1H-indol-4-yl)methyl)-9-(quinoxalin-2-yl)-1,9-diazaspiro[5.5]undecan-2-one]: the Kd in test [5] worked out at 56 nM; in test [6], 125 nM. Besides, the Ki amounted to 48 nM in test [2] and 64 nM in test [4].
The like results for `O=C1N(Cc2c[nH]c3ccccc23)CCCC12CCN(c1ncc3ccccc3n1)CC2` [Example 169, 2-((1H-indol-3-yl)methyl)-9-(quinazolin-2-yl)-2,9-diazaspiro[5.5]undecan-1-one] were, in that order, 926 nM, 123 nM, 70 nM and 966 nM.
For `O=C1N(Cc2cccc3c2OCCO3)CCCC12CCN(c1nccc3occc13)CC2` [Example 82, 2-((2,3-dihydrobenzo[b][1,4]dioxin-5-yl)methyl)-9-(furo[3,2-c]pyridin-4-yl)-2,9-diazaspiro[5.5]undecan-1-one], the Kd was 5090 nM in test [5] and 624 nM in test [6]. In addition, the inhibition constant Ki in test [2] came out at 81 nM. For the same molecule, the inhibition at 10 µM in test [4] (measured at a concentration of 10 μM of compound) stood at 33%.
For `O=C1N(Cc2cccc(-n3ccnn3)c2)CCCC12CCN(c1cnc3ccccc3n1)CC2` [Example 46, 2-(3-(1H-1,2,3-triazol-1-yl)benzyl)-9-(quinoxalin-2-yl)-2,9-diazaspiro[5.5]undecan-1-one], the results for the Kd in test [5] and in test [6] were 1290 nM and 473 nM, respectively. Besides, the Ki stood at 247 nM in test [2] and 1100 nM in test [4].
In the case of `O=C1N(Cc2ccccc2-c2ccco2)CCCC12CCN(c1cnc3ccccc3n1)CC2` [Example 150, 2-(2-(furan-2-yl)benzyl)-9-(quinoxalin-2-yl)-2,9-diazaspiro[5.5]undecan-1-one], the figures for the Kd in test [5] and in test [6] were 2100 nM and 185 nM, respectively. Also, the inhibition constant (Ki) in test [2] is 45 nM; in test [4], 744 nM.
On the same counts, the results for `O=C1N(Cc2ccccc2-c2ncco2)CCCC12CCN(c1cnc3ccccc3n1)CC2` [Example 149, 2-(2-(oxazol-2-yl)benzyl)-9-(quinoxalin-2-yl)-2,9-diazaspiro[5.5]undecan-1-one] are 3450 nM, 268 nM, 19 nM and 981 nM.
On to `O=C1N(Cc2cccc3nonc23)CCCC12CCN(c1cnc3ccccc3n1)CC2` [Example 77, 2-(benzo[c][1,2,5]oxadiazol-4-ylmethyl)-9-(quinoxalin-2-yl)-2,9-diazaspiro[5.5]undecan-1-one], for which the Kd in test [5] turned out to be 2330 nM; in test [6], 1460 nM. For the same molecule, the inhibition constant Ki in test [2] came to 98 nM; in test [4], 1150 nM.
